The results in this text go back to patent publication US10782295B2, “Cysteine-reactive ligand discovery in proteomes” (THE SCRIPPS RESEARCH INSTITUTE, priority 2013, dated 2020).

The target of assay [1] is T1, C22A-ZAK (Homo sapiens, UniProt Q9NYL2, C22A).
T1 construct: Full-length cDNA encoding human ZAK-13 (BC001401); expressed in transfected cells
The experiment in a line: in-gel fluorescence labeling by HNEyne probe. To be noted: in vitro (10 μM) and in living cells (5 μM), 1 hour. The class given is binding. As for the experimental part:
(§1) The gel signals for IA-labeling of WT-ZAK were blocked by pretreatment with HNE over a concentration range that closely matched the HNE-sensitivity profile observed for C22 in competitive isoTOP-ABPP experiments (FIG. 4b, compare to FIG. 3a). […] Considering further that C22 is predicted to reside adjacent to the ATP-binding loop of ZAK, we postulated that the HNE-induced loss of kinase activity might be due to blockade of ATP-binding.
(§2) 50 μL of soluble lysate (1 mg/mL in PBS) of […] cells transfected with mock ZAKWT and ZAK-C22A was labeled with 10 μM of HNEyne4 (Cayman Chemicals, 1 μL of 500 μM stock in ethanol) for 1 hour at room temperature. Cycloaddition was performed with 200 μM rhodamine-azide, 1 mM TCEP, 100 μM TBTA ligand and 1 mM CuSO4. The reaction was allowed to proceed at room temperature for 1 hour before quenching with 20 μL of 4×SDS-PAGE loading buffer (reducing). Quenched reactions were separated by SDS-PAGE (40 μL of sample/lane) and visualized in-gel using a fluorescence scanner. For the in situ HNEyne labeling, WT- and C22A-ZAK transfected cells were grown in a 6-well plate to 100% confluency and switched into 1 mL of serum-free DMEM medium. […] 50 μL of soluble lysates were subjected to the cycloaddition protocol as described above and probe labeling was monitored by in-gel fluorescence.

For assay [2], the target named is T2, WT-ZAK (Homo sapiens, UniProt Q9NYL2).
T2 construct: Full-length cDNA encoding human ZAK-13 (BC001401); expressed in transfected cells
The experiment in a line: in-gel fluorescence labeling by HNEyne probe. It counts as binding. To be noted: in vitro (10 μM) and in living cells (5 μM), 1 hour. As for the experimental part: as §1, §2

T1 sequence (Q9NYL2 1-455 isoform Q9NYL2-2 C22A): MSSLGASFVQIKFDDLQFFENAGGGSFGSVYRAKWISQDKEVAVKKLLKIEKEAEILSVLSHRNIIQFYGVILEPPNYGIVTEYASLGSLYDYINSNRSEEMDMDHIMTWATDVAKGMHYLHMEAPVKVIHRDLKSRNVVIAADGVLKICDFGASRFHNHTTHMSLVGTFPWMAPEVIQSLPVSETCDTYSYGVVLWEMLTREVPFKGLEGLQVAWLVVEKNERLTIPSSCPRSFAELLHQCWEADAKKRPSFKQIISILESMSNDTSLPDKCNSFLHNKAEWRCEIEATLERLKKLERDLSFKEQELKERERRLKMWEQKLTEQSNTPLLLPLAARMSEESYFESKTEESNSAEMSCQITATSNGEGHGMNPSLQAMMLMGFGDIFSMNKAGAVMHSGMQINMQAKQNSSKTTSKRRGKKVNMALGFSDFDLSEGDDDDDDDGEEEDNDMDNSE
T2 sequence (Q9NYL2 1-455 isoform Q9NYL2-2): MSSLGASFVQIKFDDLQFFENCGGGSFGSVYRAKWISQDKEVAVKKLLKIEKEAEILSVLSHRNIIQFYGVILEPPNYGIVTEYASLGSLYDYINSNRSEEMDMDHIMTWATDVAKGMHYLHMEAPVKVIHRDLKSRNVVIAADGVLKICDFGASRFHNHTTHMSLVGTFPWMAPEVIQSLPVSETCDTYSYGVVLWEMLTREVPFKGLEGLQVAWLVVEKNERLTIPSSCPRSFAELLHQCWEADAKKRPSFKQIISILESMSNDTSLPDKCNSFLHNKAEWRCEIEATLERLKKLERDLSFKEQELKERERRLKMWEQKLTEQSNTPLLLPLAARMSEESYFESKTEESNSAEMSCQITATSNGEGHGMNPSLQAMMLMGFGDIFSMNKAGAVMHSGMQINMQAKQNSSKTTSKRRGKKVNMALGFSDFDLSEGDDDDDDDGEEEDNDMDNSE

For the compound `C#CCCCC(O)C=CC=O` (centres unmarked) [HNEyne], the “probe labeling of C22A-ZAK mutant” value in assay [1] was “but not the C22A-ZAK mutant”. Also, the “probe labeling of WT-ZAK” value in assay [2] was “direct labeling”.
